Measured values published in patent US11787796B2, “Plasma Kallikrein inhibitors and uses thereof” (Takeda Pharmaceutical Company Limited, priority 2019, dated 2023).

biological target: human activated kallikrein enzyme (Homo sapiens (Human), UniProt P03952); assay: Plasma kallikrein inhibition assay with fluorogenic peptide substrate, 500 pM activated kallikrein format; format: biochemical; conditions: 500 pM activated kallikrein; 300 uM Pro-Phe-Arg-7-amido-4-methylcoumarin substrate; 30 min preincubation, 10 min reaction at RT; read-out: Primary Dose Response Assay: Average EC50
Sequence (P03952 391-638): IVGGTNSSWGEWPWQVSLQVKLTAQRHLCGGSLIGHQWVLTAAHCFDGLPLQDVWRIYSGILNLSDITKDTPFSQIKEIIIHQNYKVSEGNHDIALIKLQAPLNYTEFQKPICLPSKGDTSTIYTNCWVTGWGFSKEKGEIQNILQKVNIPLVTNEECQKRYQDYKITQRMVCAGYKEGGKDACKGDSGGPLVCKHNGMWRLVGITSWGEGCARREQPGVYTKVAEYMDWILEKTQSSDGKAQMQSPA
Sequence (P03952 20-390 partner): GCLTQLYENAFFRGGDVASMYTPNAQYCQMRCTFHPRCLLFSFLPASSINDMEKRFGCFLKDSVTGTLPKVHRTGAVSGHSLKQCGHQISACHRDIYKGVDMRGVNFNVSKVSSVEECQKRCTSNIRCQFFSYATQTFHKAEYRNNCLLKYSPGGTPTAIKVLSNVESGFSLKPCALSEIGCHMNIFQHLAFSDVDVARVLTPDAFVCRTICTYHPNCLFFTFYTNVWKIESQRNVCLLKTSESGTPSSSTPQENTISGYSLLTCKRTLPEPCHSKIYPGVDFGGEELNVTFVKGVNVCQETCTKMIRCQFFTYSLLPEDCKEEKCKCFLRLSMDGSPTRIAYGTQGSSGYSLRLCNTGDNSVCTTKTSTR
Experimental: Example compounds were evaluated for inhibition of the human activated kallikrein enzyme in two formats of an assay employing a fluorogenic peptide substrate. In one assay format, the concentrations of reagents were as follows: 20 mM Tris pH 7.5, 1 mM EDTA, 150 mM sodium chloride, 0.1% PEG-400, 0.1% Triton X-100, […], 300 uM Pro-Phe-Arg-7-amido-4-methylcoumarin substrate. Prior to reaction initiation with substrate, enzyme and inhibitors were preincubated for 30 min at RT. After initiation with substrate, reactions were incubated for 10 min at RT and fluorescence emission at 460 nm from 380 nm excitation measured with a microplate reader. In another assay format, the concentrations of reagents were as follows: 20 mM Tris pH 7.5, 1 mM EDTA, 150 mM sodium chloride, 0.1% PEG-400, 0.1% Triton X-100, 5 pM activated kallikrein enzyme, 300 uM Pro-Phe-Arg-7-amido-4-methylcoumarin substrate. Prior to reaction initiation with substrate, enzyme and inhibitors were preincubated for 30 min at RT. After initiation with substrate, reactions were incubated for 18 h at RT and fluorescence emission at 460 nm from 380 nm excitation measured with a microplate reader.
Table II provides the results of the assay in the format with 500 pM activated kallikrein assay.
Table III provides comparative plasma kallikrein inhibition potency in the assay format with 500 pM activated kallikrein assay (described in detail in the preceding example).

**Q.** With `COc1ccnc(CNC(=O)c2cn(Cc3cn4cc(C5CC5)cc(N5CCN(C)CC5)c4n3)nn2)c1F` [Example I-139, 1-((6-cyclopropyl-8-(4-methylpiperazin-1-yl)imidazo[1,2-a]pyridin-2-yl)methyl)-N-((3-fluoro-4-methoxypyridin-2-yl)methyl)-1H-1,2,3-triazole-4-carboxamide] as the compound, how does the EC50 read?
**A.** ≤ 1 nM

**Q.** With `Cc1cc2c(N)noc2c(C)c1CNC(=O)c1cnn(Cc2cn3cc(C4CC4)ccc3n2)c1` [Example I-134, N-((3-amino-5,7-dimethylbenzo[d]isoxazol-6-yl)methyl)-1-((6-cyclopropylimidazo[1,2-a]pyridin-2-yl)methyl)-1H-pyrazole-4-carboxamide] as the compound, how does the EC50 read?
**A.** 2000 to 7100 nM

**Q.** With `CCOC(=O)CCc1cc(C2CC2)cn2cc(Cn3cc(C(=O)NCc4c(C#N)ccc(OC)c4F)nn3)nc12` [Example I-108, ethyl 3-(2-((4-((6-cyano-2-fluoro-3-methoxybenzyl)carbamoyl)-1H-1,2,3-triazol-1-yl)methyl)-6-cyclopropylimidazo[1,2-a]pyridin-8-yl)propanoate] as the compound, how does the EC50 read?
**A.** 1 to 10 nM

**Q.** For `N#Cc1ccc(CNS(=O)(=O)c2cnn(Cc3cn4cc(C5CC5)ccc4n3)c2)cc1` [Example I-34, N-(4-cyanobenzyl)-1-((6-cyclopropylimidazo[1,2-a]pyridin-2-yl)methyl)-1H-pyrazole-4-sulfonamide], which EC50 is on record?
**A.** > 7100 nM

**Q.** `O=S(=O)(NCc1cccc(Cl)c1)c1cnn(Cc2cn3cc(C4CC4)ccc3n2)c1` [Example I-47, N-(3-chlorobenzyl)-1-((6-cyclopropylimidazo[1,2-a]pyridin-2-yl)methyl)-1H-pyrazole-4-sulfonamide] was tested. Which EC50 did it give?
**A.** > 7100 nM

**Q.** With `Nc1nccc2c1CCC2NC(=O)c1cn(Cc2cn3cc(C4CC4)ccc3n2)nn1` (stereo not shown) [Example I-23, N-(1-amino-6,7-dihydro-5H-cyclopenta[c]pyridin-5-yl)-1-((6-cyclopropylimidazo[1,2-a]pyridin-2-yl)methyl)-1H-1,2,3-triazole-4-carboxamide] as the compound, how does the EC50 read?
**A.** ≤ 1 nM

**Q.** With `COc1ccc(-c2ccncc2)c(CNC(=O)c2cn(Cc3cn4cc(C5CC5)ccc4n3)nn2)c1F` [Example I-101, 1-((6-cyclopropylimidazo[1,2-a]pyridin-2-yl)methyl)-N-(2-fluoro-3-methoxy-6-(pyridin-4-yl)benzyl)-1H-1,2,3-triazole-4-carboxamide] as the compound, how does the EC50 read?
**A.** 1 to 10 nM

**Q.** For `COc1ccc(-n2cnnn2)c(CNC(=O)c2cn(Cc3cn4cc(C5CC5)ccc4n3)nn2)c1F` [Example I-105, 1-((6-cyclopropylimidazo[1,2-a]pyridin-2-yl)methyl)-N-(2-fluoro-3-methoxy-6-(1H-tetrazol-1-yl)benzyl)-1H-1,2,3-triazole-4-carboxamide], which EC50 is on record?
**A.** ≤ 1 nM

**Q.** For `N#CNc1ccc(Cl)c(F)c1CNC(=O)c1cn(Cc2cn3cc(C4CC4)cc(CCC(=O)O)c3n2)nn1` [Example I-110, 3-(2-((4-((3-chloro-6-cyanamido-2-fluorobenzyl)carbamoyl)-1H-1,2,3-triazol-1-yl)methyl)-6-cyclopropylimidazo[1,2-a]pyridin-8-yl)propanoic Acid], which EC50 is on record?
**A.** 1 to 10 nM

**Q.** How did the EC50 turn out when `O=C(NCc1cc2c(cn1)CCCO2)c1cn(Cc2cn3cc(C4CC4)ccc3n2)nn1` [Example I-150, 1-((6-cyclopropylimidazo[1,2-a]pyridin-2-yl)methyl)-N-((3,4-dihydro-2H-pyrano[3,2-c]pyridin-7-yl)methyl)-1H-1,2,3-triazole-4-carboxamide] was run?
**A.** 100 to 2000 nM

**Q.** For `N=C(N)c1ccc(CNS(=O)(=O)c2cnn(Cc3cn4cc(C5CC5)ccc4n3)c2)cc1` [Example I-32, 4-(((1-((6-cyclopropylimidazo[1,2-a]pyridin-2-yl)methyl)-1H-pyrazole)-4-sulfonamido)methyl)benzimidamide], which EC50 is on record?
**A.** 1 to 10 nM

**Q.** How did the EC50 turn out when `COc1ccc(-n2cnnn2)c(CNC(=O)c2cn3c(n2)OCC3c2cn3cc(C4CC4)ccc3n2)c1F` (stereo not shown) [Example I-9, 3-(6-cyclopropylimidazo[1,2-a]pyridin-2-yl)-N-(2-fluoro-3-methoxy-6-(1H-tetrazol-1-yl)benzyl)-2,3-dihydroimidazo[2,1-b]oxazole-6-carboxamide] was run?
**A.** 10 to 100 nM

**Q.** For `COc1ccc(-n2ccnc2)c(CNC(=O)c2cn(Cc3cn4cc(C5CC5)ccc4n3)nn2)c1F` [Example I-104, 1-((6-cyclopropylimidazo[1,2-a]pyridin-2-yl)methyl)-N-(2-fluoro-6-(1H-imidazol-1-yl)-3-methoxybenzyl)-1H-1,2,3-triazole-4-carboxamide], which EC50 is on record?
**A.** 1 to 10 nM

**Q.** How did the EC50 turn out when `COc1ccc(-n2cnnn2)c(CNC(=O)c2cn(Cc3cn4cc(C5CC5)cc(-n5cnnc5)c4n3)nn2)c1F` [Example I-71, 1-((6-cyclopropyl-8-(4H-1,2,4-triazol-4-yl)imidazo[1,2-a]pyridin-2-yl)methyl)-N-(2-fluoro-3-methoxy-6-(1H-tetrazol-1-yl)benzyl)-1H-1,2,3-triazole-4-carboxamide] was run?
**A.** ≤ 1 nM

**Q.** `COc1ccc(-n2cnnn2)c(CNC(=O)c2cn(Cc3cn4cc(C5CC5)ccc4n3)cn2)c1F` [Example I-55, 1-((6-cyclopropylimidazo[1,2-a]pyridin-2-yl)methyl)-N-(2-fluoro-3-methoxy-6-(1H-tetrazol-1-yl)benzyl)-1H-imidazole-4-carboxamide] was tested. Which EC50 did it give?
**A.** ≤ 1 nM

**Q.** How did the EC50 turn out when `COc1ccc(-n2cnnn2)c(CNC(=O)c2nnn(Cc3cn4cc(C5CC5)cc(F)c4n3)n2)c1F` [Example I-69, 2-((6-cyclopropyl-8-fluoroimidazo[1,2-a]pyridin-2-yl)methyl)-N-(2-fluoro-3-methoxy-6-(1H-tetrazol-1-yl)benzyl)-2H-tetrazole-5-carboxamide] was run?
**A.** ≤ 1 nM

**Q.** For `Cc1[nH]nc2c1CC[C@H]2NC(=O)c1cnn(Cc2cn3cc(C4CC4)ccc3n2)c1` [Example I-155], which EC50 is on record?
**A.** 1 to 10 nM

**Q.** For `COc1ccc(-n2cnnn2)c(CNC(=O)c2cn(Cc3cn4cc(C5CC5)cc(C5(F)COC5)c4n3)nn2)c1F` [Example I-91, 1-((6-cyclopropyl-8-(3-fluorooxetan-3-yl)imidazo[1,2-a]pyridin-2-yl)methyl)-N-(2-fluoro-3-methoxy-6-(1H-tetrazol-1-yl)benzyl)-1H-1,2,3-triazole-4-carboxamide], which EC50 is on record?
**A.** ≤ 1 nM

**Q.** For `COc1ccc(-c2cn[nH]c2)c(CNC(=O)c2cn(Cc3cn4cc(C5CC5)ccc4n3)nn2)c1F` [Example I-67, 1-((6-cyclopropylimidazo[1,2-a]pyridin-2-yl)methyl)-N-(2-fluoro-3-methoxy-6-(1H-pyrazol-4-yl)benzyl)-1H-1,2,3-triazole-4-carboxamide], which EC50 is on record?
**A.** 1 to 10 nM

**Q.** How did the EC50 turn out when `COc1ccc(-n2cnnn2)c(CNC(=O)c2cn(Cc3cn4cc(C5CC5)cc(CC(C)(C)C(=O)O)c4n3)nn2)c1F` [Example I-81, 3-(6-cyclopropyl-2-((4-((2-fluoro-3-methoxy-6-(1H-tetrazol-1-yl)benzyl)carbamoyl)-1H-1,2,3-triazol-1-yl)methyl)imidazo[1,2-a]pyridin-8-yl)-2,2-dimethylpropanoic acid] was run?
**A.** ≤ 1 nM

**Q.** Which EC50 does the source give for `O=S(=O)(NCc1ccc(Cl)cc1)c1cnn(Cc2cn3cc(C4CC4)ccc3n2)c1` [Example I-42, N-(4-chlorobenzyl)-1-((6-cyclopropylimidazo[1,2-a]pyridin-2-yl)methyl)-1H-pyrazole-4-sulfonamide] here?
**A.** > 7100 nM

**Q.** For `COc1ccc(-n2cc(C)c(C)n2)c(CNC(=O)c2cn(Cc3cn4cc(C5CC5)ccc4n3)nn2)c1F` [Example I-73, 1-((6-cyclopropylimidazo[1,2-a]pyridin-2-yl)methyl)-N-(6-(3,4-dimethyl-1H-pyrazol-1-yl)-2-fluoro-3-methoxybenzyl)-1H-1,2,3-triazole-4-carboxamide], which EC50 is on record?
**A.** 10 to 100 nM

**Q.** For `COc1ccc(Br)c(CNC(=O)c2cn(Cc3cn4cc(C5CC5)ccc4n3)nn2)c1F` [Example I-102, N-(6-bromo-2-fluoro-3-methoxybenzyl)-1-((6-cyclopropylimidazo[1,2-a]pyridin-2-yl)methyl)-1H-1,2,3-triazole-4-carboxamide], which EC50 is on record?
**A.** 10 to 100 nM

**Q.** How did the EC50 turn out when `COc1ccc(-n2cnnn2)c(CNC(=O)c2cn(Cc3cn4cc(C5CC5)cc(CN)c4n3)nn2)c1F` [Example I-25, 1-((8-(aminomethyl)-6-cyclopropylimidazo[1,2-a]pyridin-2-yl)methyl)-N-(2-fluoro-3-methoxy-6-(1H-tetrazol-1-yl)benzyl)-1H-1,2,3-triazole-4-carboxamide] was run?
**A.** ≤ 1 nM

**Q.** For `O=C(NCc1cc2occc2cn1)c1cn(Cc2cn3cc(C4CC4)ccc3n2)nn1` [Example I-140, 1-((6-cyclopropylimidazo[1,2-a]pyridin-2-yl)methyl)-N-(furo[3,2-c]pyridin-6-ylmethyl)-1H-1,2,3-triazole-4-carboxamide], which EC50 is on record?
**A.** 100 to 2000 nM

**Q.** With `Cc1cc2[nH]ccc2c(C)c1CNC(=O)c1cnn(Cc2cn3cc(C4CC4)ccc3n2)c1` [Example I-124, 1-((6-cyclopropylimidazo[1,2-a]pyridin-2-yl)methyl)-N-((4,6-dimethyl-1H-indol-5-yl)methyl)-1H-pyrazole-4-carboxamide] as the compound, how does the EC50 read?
**A.** 10 to 100 nM

**Q.** Which EC50 does the source give for `Cc1cc(CN)cc(C)c1CNS(=O)(=O)c1cnn(Cc2cn3cc(C4CC4)ccc3n2)c1` [Example I-41, N-(4-(aminomethyl)-2,6-dimethylbenzyl)-1-((6-cyclopropylimidazo[1,2-a]pyridin-2-yl)methyl)-1H-pyrazole-4-sulfonamide] here?
**A.** 2000 to 7100 nM

same assay, conditions: comparative compounds (Table III); 500 pM activated kallikrein format; read-out: Primary Dose Response Assay: Average EC50

**Q.** With `O=C(NCc1ncn2ccc(Cl)c(F)c12)c1cn(Cc2ccc3nccnc3c2)nn1` as the compound, how does the EC50 read?
**A.** 10 to 100 nM
